Data reported in ChEMBL document CHEMBL1201862, “PubChem BioAssay data set” (2004).
Calls of active or inactive are those of the source. Cut-off read from the data, not from the text of the source, for most assays here: actives have a measured EC50 and inactives only a lower limit.

Assays:
Protein RecA = target: T1, Protein RecA (Mycobacterium tuberculosis, UniProt P9WHJ3); assay: Fluorescence Cell-Free Homogeneous Dose Retest to Identify Inhibitors of RecA-Intein Splicing Activity. [Related pubchem assays (depositor defined):AID2097, AID2223, AID489010, AID492950]; type: functional
T1 sequence (P9WHJ3 whole entry): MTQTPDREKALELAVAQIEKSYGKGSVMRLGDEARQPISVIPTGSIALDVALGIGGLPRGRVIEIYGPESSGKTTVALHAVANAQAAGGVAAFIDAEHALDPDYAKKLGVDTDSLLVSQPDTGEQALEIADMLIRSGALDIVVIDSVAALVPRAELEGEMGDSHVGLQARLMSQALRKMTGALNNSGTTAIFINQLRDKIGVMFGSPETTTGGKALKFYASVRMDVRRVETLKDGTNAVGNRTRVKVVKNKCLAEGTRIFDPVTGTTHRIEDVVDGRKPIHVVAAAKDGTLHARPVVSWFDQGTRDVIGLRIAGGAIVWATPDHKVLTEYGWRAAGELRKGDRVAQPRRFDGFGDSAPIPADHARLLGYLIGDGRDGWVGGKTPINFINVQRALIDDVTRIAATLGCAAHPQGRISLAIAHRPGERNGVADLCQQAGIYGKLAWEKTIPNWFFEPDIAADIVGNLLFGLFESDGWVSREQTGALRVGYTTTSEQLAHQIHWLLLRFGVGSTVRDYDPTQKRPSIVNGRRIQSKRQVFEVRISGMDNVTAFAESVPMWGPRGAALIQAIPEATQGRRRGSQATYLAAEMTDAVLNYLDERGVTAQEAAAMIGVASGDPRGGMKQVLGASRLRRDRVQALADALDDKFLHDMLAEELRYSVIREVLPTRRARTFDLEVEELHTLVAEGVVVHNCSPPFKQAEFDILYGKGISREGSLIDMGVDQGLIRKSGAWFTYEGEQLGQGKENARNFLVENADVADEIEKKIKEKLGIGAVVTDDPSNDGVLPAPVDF

[1] = target: T2, Replicative DNA helicase DnaB (Mycobacterium tuberculosis, UniProt P9WMR3); assay: DnaB intein splicing inhibitors, dose response, biochemical, cell-free fluorescence (AID 449749); type: functional
T2 sequence (P9WMR3 whole entry): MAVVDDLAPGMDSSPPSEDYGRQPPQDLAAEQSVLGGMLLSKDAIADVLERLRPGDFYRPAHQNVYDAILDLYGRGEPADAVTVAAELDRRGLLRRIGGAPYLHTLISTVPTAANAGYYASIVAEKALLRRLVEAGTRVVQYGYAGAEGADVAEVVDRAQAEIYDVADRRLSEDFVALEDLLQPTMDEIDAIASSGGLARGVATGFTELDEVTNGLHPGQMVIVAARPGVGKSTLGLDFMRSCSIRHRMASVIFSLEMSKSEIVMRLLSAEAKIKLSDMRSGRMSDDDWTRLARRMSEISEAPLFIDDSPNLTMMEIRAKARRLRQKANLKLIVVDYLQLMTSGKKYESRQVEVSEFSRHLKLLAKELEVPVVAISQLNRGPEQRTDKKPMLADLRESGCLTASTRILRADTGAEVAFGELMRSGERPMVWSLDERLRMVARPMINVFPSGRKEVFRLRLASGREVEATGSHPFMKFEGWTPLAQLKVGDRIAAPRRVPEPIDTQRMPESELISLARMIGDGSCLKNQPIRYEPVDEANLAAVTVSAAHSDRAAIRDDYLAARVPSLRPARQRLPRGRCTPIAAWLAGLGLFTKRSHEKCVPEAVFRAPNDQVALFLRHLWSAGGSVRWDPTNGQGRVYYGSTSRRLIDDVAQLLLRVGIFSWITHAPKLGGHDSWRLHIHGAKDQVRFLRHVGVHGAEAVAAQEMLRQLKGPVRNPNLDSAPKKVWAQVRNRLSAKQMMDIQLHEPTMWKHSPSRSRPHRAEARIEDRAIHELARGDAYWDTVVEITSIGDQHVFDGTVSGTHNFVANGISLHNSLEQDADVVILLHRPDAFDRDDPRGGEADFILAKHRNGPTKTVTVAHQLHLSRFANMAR

[2] = tested on: Streptococcus sp. 'group A'; assay: Streptococcus pyogenes SK(-)GAS viability under kanamycin – luminescence, BacTiterGlo, confirmation, counter-screen for streptokinase expression inhibitor project, dose response (AID 1900); type: functional, organism-based
Streptokinase A = target: T3, Streptokinase A (Streptococcus pyogenes serotype M1, UniProt P10520); assay: viability-normalized secreted streptokinase activity reduction – plasminogen activation absorbance, OD405, dose response (AID 1914); type: functional, Streptococcus pyogenes M1 GAS;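 note: secreted streptokinase activity via plasminogen activation per viability signal from cell pellet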
T3 sequence (P10520 whole entry): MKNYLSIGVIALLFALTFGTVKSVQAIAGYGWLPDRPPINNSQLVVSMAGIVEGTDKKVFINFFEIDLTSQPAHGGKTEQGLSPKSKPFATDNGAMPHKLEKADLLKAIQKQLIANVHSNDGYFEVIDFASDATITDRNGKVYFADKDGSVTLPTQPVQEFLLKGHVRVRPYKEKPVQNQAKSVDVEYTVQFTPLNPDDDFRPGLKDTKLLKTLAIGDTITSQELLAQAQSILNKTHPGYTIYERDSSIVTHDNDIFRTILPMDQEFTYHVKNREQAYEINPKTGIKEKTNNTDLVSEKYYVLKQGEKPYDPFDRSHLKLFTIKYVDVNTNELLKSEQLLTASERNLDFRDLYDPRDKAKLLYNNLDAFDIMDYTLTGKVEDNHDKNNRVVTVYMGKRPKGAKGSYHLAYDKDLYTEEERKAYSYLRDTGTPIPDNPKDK

Streptococcus = assay: GAS UMAA2166 growth inhibition – luminescence, BacTiterGlo, counter-screen for streptokinase expression inhibitor project, dose response (AID 1915); type: functional, organism-based;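 note: potency for reduction of bacterial viability or growth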
[3] = target: T4, Tyrosyl-DNA phosphodiesterase 2 (Homo sapiens, UniProt O95551); assay: potency against TDP2 phosphodiesterase activity – biochemical, epi absorbance, IC50, dose response (AID 743297)
T4 sequence (O95551 whole entry): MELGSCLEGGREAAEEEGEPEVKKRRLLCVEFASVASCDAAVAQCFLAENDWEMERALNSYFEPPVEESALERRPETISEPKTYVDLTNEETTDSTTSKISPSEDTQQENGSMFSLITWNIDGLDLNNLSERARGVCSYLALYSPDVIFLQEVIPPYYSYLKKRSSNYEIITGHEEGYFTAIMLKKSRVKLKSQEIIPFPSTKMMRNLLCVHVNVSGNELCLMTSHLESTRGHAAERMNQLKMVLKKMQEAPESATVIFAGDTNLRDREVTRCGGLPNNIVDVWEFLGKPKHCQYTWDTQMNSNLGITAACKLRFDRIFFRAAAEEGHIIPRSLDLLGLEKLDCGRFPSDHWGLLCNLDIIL

Row | Structure (SMILES) | EC50 (Protein RecA) | AC50 [1] | EC50 [2] | EC50 (Streptokinase A) | EC50 (Streptococcus) | IC50 [3]
1 | CCc1nnc(NS(=O)(=O)c2ccc(NC(=S)NC(=O)/C=C/c3ccc(C(C)C)cc3)cc2)s1 | 33.4 µM (active) | 3150 nM (active) | 2.39 µM (active) | 4.44 µM (active) | 7.83 µM (active) | 
2 | COc1ccc(S(=O)(=O)Nc2cc(SCC(=O)O)c(O)c3ccccc23)cc1 | 0.234 µM (active) | 885 nM (active) |  |  |  | 75.9 µM (inactive)
3 | O=C1C(Nc2ccc(O)cc2)=C/C(=N/S(=O)(=O)c2cccs2)c2ccccc21 | 0.123 µM (active) | 128 nM (active) | 1.68 µM (active) | > 150 µM (not active) | 7.1 µM (active) | 0.698 µM (active)
4 | COC(=O)C(O)(c1c(C)[nH]n(-c2ccccc2)c1=O)C(F)(F)F (configuration not stated) | 3.74 µM (active) | < 18 nM (active) |  |  |  | 12.7 µM (inactive)
5 | CC1CC(=O)c2c(cc3c(-c4c(O)cc(O)c5c(O)c6c(cc45)OC(C)CC6=O)c(O)cc(O)c3c2O)O1 (configuration not stated) [CEPHALOCHROMIN] | 1.57 µM (active) | 1780 nM (active) | 0.348 µM (active) | > 150 µM (not active) | 0.991 µM (active) | 
